Experimental data published in patent publication US10195179B2, “Spiro-lactam NMDA receptor modulators and uses thereof” (Aptinyx Inc., priority 2016, dated 2019).
Read-outs that look alike come from different tables or passages of the source.

How the values were obtained:
NR2D = NR2D (Homo sapiens, UniProt O15399); assay: Potentiation of [3H]MK-801 binding, wild-type NMDAR2D; set-up: species or system rat; details: for NMDAR2D BINDING PROFILE % 1 mM Glycine: relative to 1 mM glycine
Description: (§1) Assays were conducted as described by Moskal et al., “GLYX-13: a monoclonal antibody-derived peptide that acts as an N-methyl-D-aspartate receptor modulator,” Neuropharmacology, 49, 1077-87, 2005. The potentiation of [^3H]MK-801 binding (5 nM; 22.5 Ci/mmol) to well washed rat cortical membranes (200 μg) was measured under non-equilibrium conditions (15 min @ 25° C.) in the presence of increasing concentrations of Compound AA or Compound BB.
(§2) FIG. 2A depicts the potentiation of [^3H]MK-801 binding for wild-type NMDAR2 subtypes in the presence of Compound AA. FIG. 2B depicts the potentiation of [^3H]MK-801 binding for wild-type NMDAR2 subtypes in the presence of Compound BB. The following table depicts the results (P means potency and A means activity): […]

NR2C = NR2C (Homo sapiens, UniProt Q14957); assay: Potentiation of [3H]MK-801 binding, wild-type NMDAR2C; set-up: species or system rat; details: for NMDAR2C BINDING PROFILE % 1 mM Glycine: relative to 1 mM glycine
Description: as §1, §2

NR2B = NR2B (Homo sapiens, UniProt Q13224); assay: Potentiation of [3H]MK-801 binding, wild-type NMDAR2B; set-up: species or system rat; details: for NMDAR2B BINDING PROFILE % 1 mM Glycine: relative to 1 mM glycine; for NMDAR2B BINDING PROFILE Conclusion / EC50: wild-type NMDAR2B; for EC50: 0 = no activity, read-out: NMDAR2B BINDING PROFILE −logEC50 (converted)
Description: as §1, §2

NR2A = NR2A (Homo sapiens, UniProt Q12879); assay: Potentiation of [3H]MK-801 binding, wild-type NMDAR2A; set-up: species or system rat; details: for NMDAR2A BINDING PROFILE % 1 mM Glycine: relative to 1 mM glycine
[1] = Microsomal stability, rat; assay type: in vitro ADME; details: rat microsomes
Description: (§3) Microsomal stability for Compound AA and Compound BB was investigated. The following table indicates the percent of Compound AA and Compound BB remaining after 60 minutes.

[2] = Plasma protein binding assay, rat; assay type: in vitro ADME; details: read-out: Plasma Protein binding (% Bound) Plasma rat (converted)
Description: Bound drug concentration in the brain was also investigated, and plasma protein binding assays were conducted. The following table (% bound) indicates results for Compound AA and Compound BB.

Plasma stability, human = assay type: in vitro ADME
Description: (§4) Plasma stability for Compound AA and Compound BB was investigated. The following table indicates the percent of Compound AA and Compound BB remaining after 60 minutes.

[3] = Microsomal stability, human; assay type: in vitro ADME; details: human microsomes
Description: as §3

[4] = Bioavailability and CSF/brain/plasma exposure after PO administration; assay type: in vivo, Sprague Dawley rats; details: rat, plasma; PO administration (10 mg/kg PO, 2 mg/kg IV), male Sprague Dawley rats; read-out: Bioavailablity (% F)
Description: The bioavailablity of Compound BB was investigated following PO administration. CSF, brain and plasma samples were analyzed following dosing with compound BB (10 mg/kg). The following table indicates the bioavailablity and CSF/plasma and brain/plasma ratios.
Sprague Dawley rats were dosed intravenously with 2 mg/kg of Compound AA. A second group of Sprague Dawley rats was dosed per os with 10 mg/kg of compound AA. Plasma samples were drawn over a 24 h period and analyzed for Compound AA. FIG. 3A presents the mean plasma concentration-time profile of Compound AA following the single intraveneous (2 mg/kg) and oral (10 mg/kg) dose administration in male Sprague Dawley rats over the 24 hour period.
In another experiment. Sprague Dawley rats were dosed intravenously with 2 mg/kg of Compound BB. A second group of Sprague Dawley rats was dosed per os with 10 mg/kg of compound BB. Plasma samples were drawn over a 24 h period and analyzed for Compound BB. FIG. 3B presents the mean plasma concentration-time profile of Compound BB following the single intraveneous (2 mg/kg) and oral (10 mg/kg) dose administration in male Sprague Dawley rats over the 24 hour period.
In another experiment, Sprague Dawley rats were dosed per os with 10 mg/kg of Compound BB. Plasma, brain, and CSF samples were analyzed at various time points over a 24 hour period.

Sprague Dawley rats = assay: Porsolt forced swim test; assay type: in vivo, rat; details: 1 mg/kg PO
Description: A non-clinical in vivo pharmacology study (Porsolt assay) was performed to measure antidepressant-like effects. A negative control (0.5% sodium carboxymethyl cellulose in 0.9% sterile saline vehicle) and a positive control (Compound C) were used to compare against Compound BB. The study allowed for the construction of a dose-response curve of the effects of each compound on the Porsolt forced swim test as assessed by the rats' response (reduced floating time) during a 5-minute swimming test.
Male 2-3 month old Sprague Dawley rats were used (Harlan, Indianapolis, Ind.). Rats were housed in Lucite cages with aspen wood chip bedding, maintained on a 12:12 light:dark cycle (lights on at 5 AM), and given ad libitum access to Purina lab chow (USA) and tap water throughout the study.
The Porsolt forced swim test adapted for use in rats was performed as described by Burgdorf et al., (The long-lasting antidepressant effects of rapastinel (GLYX-13) are associated with a metaplasticity process in the medial prefrontal cortex and hippocampus. Neuroscience 308:202-211, 2015). Animals were placed in a 46 cm tall×20 cm in diameter clear glass tube filled to 30 cm with tap water (23±1° C.) for 15 min on the first day (habituation) and 5 min on the subsequent test day. Animals were tested 1 h post-dosing with the compound BB, positive control (Compound C, 10 μg/kg), or vehicle (0.5% sodium carboxymethyl cellulose (Na-CMC) in 0.9% sterile saline). Water was changed after every other animal. Animals were videotaped, and floating time as defined as the minimal amount of effort required to keep the animals head above water was scored offline by a blinded experimenter with high inter-rater reliability (Pearson's r >0.9).
The maximally efficacious dose was defined as the lowest dose that was statistically different from vehicle but statistically equivalent (per Fisher's PLSD) to the higher doses. […]
Compound AA was assessed in a second set of animals at a single dose at 1 h post-administration and in a third set of animals at 24 h post-administration (FIG. 9B). […]

Plasma stability, rat = assay type: in vitro ADME
Description: as §4

[5] = wild-type NMDAR2D, read-out: NMDAR2D BINDING PROFILE −logEC50 (converted)
[6] = potentiation of [3H]MK-801 binding
[7] = wild-type NMDAR2C, 0 = no activity, read-out: NMDAR2C BINDING PROFILE −logEC50 (converted)
[8] = wild-type NMDAR2A, 0 = no activity, read-out: NMDAR2A BINDING PROFILE −logEC50 (converted)

Sequence of NR2A (Q12879 23-1464, species assumed, other chains not shown): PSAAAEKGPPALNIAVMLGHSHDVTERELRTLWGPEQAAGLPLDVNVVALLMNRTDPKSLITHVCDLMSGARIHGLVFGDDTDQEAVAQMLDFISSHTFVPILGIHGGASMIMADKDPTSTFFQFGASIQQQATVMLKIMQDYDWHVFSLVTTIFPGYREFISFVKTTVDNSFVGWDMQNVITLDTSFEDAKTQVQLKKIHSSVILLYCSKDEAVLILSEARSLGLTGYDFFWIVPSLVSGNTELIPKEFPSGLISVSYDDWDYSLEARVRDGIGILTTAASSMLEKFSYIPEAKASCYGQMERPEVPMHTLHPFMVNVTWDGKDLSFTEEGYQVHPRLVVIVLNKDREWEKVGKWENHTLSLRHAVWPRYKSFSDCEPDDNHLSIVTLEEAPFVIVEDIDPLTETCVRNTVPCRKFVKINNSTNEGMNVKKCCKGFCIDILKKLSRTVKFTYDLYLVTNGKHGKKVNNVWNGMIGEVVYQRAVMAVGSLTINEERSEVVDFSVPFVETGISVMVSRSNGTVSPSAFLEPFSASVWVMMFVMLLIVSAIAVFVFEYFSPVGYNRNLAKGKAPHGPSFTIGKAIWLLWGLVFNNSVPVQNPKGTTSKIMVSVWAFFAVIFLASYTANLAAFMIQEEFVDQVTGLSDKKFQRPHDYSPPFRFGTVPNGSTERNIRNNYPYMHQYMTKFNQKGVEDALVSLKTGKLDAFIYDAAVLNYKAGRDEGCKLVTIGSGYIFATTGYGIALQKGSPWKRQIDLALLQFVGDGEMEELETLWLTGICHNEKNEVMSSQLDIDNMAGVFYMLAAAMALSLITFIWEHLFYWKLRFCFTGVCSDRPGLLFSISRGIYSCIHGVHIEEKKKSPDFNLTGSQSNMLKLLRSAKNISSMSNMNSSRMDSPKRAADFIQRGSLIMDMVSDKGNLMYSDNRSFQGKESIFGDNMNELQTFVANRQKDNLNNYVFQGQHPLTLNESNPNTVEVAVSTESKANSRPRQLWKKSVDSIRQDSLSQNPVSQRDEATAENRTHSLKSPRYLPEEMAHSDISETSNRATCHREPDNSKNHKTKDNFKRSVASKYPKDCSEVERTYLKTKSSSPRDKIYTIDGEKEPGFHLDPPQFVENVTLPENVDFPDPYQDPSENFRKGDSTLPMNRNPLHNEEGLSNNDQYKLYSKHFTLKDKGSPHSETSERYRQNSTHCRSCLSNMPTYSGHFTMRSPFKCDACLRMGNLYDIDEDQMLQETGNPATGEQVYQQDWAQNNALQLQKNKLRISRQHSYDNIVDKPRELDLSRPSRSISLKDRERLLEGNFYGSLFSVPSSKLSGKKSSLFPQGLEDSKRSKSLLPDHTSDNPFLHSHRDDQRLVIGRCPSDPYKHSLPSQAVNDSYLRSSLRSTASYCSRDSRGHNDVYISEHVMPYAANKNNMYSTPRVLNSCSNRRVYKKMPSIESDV
Sequence of NR2C (Q14957 20-1233, species assumed, other chains not shown): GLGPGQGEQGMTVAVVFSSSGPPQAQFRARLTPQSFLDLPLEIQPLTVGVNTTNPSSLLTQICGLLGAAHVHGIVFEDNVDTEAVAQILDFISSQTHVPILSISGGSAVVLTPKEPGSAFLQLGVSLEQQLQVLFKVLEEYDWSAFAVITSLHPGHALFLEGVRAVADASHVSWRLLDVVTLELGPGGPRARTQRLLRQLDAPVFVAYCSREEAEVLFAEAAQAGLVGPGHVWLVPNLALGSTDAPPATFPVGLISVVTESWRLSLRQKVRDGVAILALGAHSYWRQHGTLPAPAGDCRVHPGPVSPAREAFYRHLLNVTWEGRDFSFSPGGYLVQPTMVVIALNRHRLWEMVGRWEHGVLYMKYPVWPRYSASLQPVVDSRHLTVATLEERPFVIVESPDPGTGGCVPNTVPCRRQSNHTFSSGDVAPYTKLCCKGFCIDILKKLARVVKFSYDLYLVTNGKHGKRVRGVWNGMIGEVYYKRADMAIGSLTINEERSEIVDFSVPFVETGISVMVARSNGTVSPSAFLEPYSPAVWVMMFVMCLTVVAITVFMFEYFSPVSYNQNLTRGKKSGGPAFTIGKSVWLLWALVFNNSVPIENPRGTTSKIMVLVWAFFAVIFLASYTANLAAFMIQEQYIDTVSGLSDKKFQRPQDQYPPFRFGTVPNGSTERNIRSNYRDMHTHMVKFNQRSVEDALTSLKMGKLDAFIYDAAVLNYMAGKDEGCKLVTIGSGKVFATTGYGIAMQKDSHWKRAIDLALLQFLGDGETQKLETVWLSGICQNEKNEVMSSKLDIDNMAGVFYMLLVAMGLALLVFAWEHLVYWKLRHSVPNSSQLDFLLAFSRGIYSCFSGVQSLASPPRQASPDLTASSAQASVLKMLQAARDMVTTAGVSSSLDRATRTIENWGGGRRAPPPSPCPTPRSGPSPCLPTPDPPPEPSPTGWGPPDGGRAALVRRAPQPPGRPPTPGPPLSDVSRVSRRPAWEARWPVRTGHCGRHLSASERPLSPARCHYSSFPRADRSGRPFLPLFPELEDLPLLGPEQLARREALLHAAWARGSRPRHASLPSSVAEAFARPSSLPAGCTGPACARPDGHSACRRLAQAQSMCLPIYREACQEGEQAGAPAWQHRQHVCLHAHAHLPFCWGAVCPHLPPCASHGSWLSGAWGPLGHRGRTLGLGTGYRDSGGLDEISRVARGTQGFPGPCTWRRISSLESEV
Sequence of NR2D (O15399 28-1336, species assumed, other chains not shown): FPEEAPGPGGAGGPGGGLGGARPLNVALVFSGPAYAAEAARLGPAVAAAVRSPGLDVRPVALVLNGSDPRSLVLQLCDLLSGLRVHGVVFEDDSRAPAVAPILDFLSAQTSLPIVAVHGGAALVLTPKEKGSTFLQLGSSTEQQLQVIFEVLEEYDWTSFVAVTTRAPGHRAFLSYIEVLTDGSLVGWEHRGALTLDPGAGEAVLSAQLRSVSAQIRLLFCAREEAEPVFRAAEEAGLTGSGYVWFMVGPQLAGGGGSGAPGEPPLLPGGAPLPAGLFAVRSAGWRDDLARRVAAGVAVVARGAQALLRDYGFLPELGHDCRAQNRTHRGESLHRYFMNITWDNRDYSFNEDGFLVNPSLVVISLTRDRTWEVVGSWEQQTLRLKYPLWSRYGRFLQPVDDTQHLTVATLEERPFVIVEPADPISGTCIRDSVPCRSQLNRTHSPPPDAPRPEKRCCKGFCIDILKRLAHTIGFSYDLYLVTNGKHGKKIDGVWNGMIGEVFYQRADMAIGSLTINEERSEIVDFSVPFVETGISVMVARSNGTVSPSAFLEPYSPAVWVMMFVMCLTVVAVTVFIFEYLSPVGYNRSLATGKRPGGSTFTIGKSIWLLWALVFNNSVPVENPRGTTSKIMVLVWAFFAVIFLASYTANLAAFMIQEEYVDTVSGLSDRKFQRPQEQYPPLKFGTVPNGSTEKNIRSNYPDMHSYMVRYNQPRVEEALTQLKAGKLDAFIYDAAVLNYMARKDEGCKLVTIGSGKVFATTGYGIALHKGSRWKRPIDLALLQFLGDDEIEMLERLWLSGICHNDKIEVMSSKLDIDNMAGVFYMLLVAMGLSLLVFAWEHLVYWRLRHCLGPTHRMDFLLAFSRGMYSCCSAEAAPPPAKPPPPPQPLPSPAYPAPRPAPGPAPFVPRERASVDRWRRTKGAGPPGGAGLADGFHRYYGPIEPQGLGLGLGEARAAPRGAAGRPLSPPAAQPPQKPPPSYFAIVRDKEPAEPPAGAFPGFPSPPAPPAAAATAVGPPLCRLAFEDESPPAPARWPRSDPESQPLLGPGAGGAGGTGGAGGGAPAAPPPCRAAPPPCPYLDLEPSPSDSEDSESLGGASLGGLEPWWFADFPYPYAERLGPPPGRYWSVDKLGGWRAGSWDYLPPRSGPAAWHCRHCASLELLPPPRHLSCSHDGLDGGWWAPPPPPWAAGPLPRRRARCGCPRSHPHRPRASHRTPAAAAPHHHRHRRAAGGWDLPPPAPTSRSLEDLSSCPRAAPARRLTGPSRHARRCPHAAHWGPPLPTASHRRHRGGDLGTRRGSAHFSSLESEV

| SMILES | NMDAR2D BINDING PROFILE % 1 mM Glycine (NR2D) | NMDAR2D BINDING PROFILE Conclusion (NR2D; wild-type NMDAR2D) | EC50 (NR2D; [5]) | NMDAR2C BINDING PROFILE % 1 mM Glycine (NR2C) | NMDAR2C BINDING PROFILE Conclusion (NR2C; wild-type NMDAR2C) | NMDAR2B BINDING PROFILE % 1 mM Glycine (NR2B) | NMDAR2B BINDING PROFILE Conclusion (NR2B) | EC50 (NR2B) | NMDAR2A BINDING PROFILE % 1 mM Glycine (NR2A) | NMDAR2A BINDING PROFILE Conclusion (NR2A; wild-type NMDAR2A) | EC50 (NR2C; [7]) | EC50 (NR2A; [8]) | further results |
| --- | --- | --- | --- | --- | --- | --- | --- | --- | --- | --- | --- | --- | --- |
| C[C@@H](O)[C@@H](C(N)=O)N1C[C@@]2(CCCN2C(=O)OC(C)(C)C)C1=O [Compound X, tert-butyl (S)-2-((2S,3R)-1-amino-3-hydroxy-1-oxobutan-2-yl)-1-oxo-2,5-diazaspiro[3,4]octane-5-carboxylate] | 93.58% | WT2D agonist | 1.32e-12 M | 59.73% | WT2C agonist | 59.55% | WT2B agonist | 0.147 nM | 41.04% | WT2A agonist | – | – | – |
| C[C@@H](O)[C@@H](C(N)=O)N1C[C@]2(CCCN2S(C)(=O)=O)C1=O [Compound AA, (2S,3R)-3-hydroxy-2-((R)-5-(methylsulfonyl)-1-oxo-2,5-diazaspiro[3,4]octan-2-yl)butanamide] | 52% | WT2D agonist | 1.58e-11 M | 67% | WT2C agonist | 0% | WT2B no | – | 38.8% | WT2A agonist | – | – | NR2D A (%) (activity) (NR2D; [6]): 58.7%; EC50 (NR2D; potentiation of [3H]MK-801 binding, 0 = no activity, read-out: NR2D P (M) (potency) (converted)): 2e-11 M; NR2C A (%) (activity) (NR2C; [6]): 67.0%; EC50 (NR2C; potentiation of [3H]MK-801 binding, 0 = no activity, read-out: NR2C P (M) (potency)): 1e-10 M; NMDAR2C BINDING PROFILE −logEC50 (NR2C; wild-type NMDAR2C, 0 = no activity): 10; Microsomal Stability (% remaining at 60 min) Rat [1]: 100%; fraction unbound [2]: 0.82; NR2B A (%) (activity) (NR2B; [6]): 0%; NR2A A (%) (activity) (NR2A; [6]): 38.8%; EC50 (NR2A; potentiation of [3H]MK-801 binding, 0 = no activity, read-out: NR2A P (M) (potency)): 1e-10 M; NMDAR2A BINDING PROFILE −logEC50 (NR2A; wild-type NMDAR2A, 0 = no activity): 10; Plasma Stability (% remaining at 60 min) Human (Plasma stability, human): 91%; Microsomal Stability (% remaining at 60 min) Human [3]: 100%; bioavailability [4]: 29%; floating time in the Porsolt test (Sprague Dawley rats; 1 h post-dosing): significant (p<0.05) antidepressant-like effect; floating time in the Porsolt test (Sprague Dawley rats; 24 h post-dosing): significant (p<0.05) antidepressant-like effect; Plasma Stability (% remaining at 60 min) Rat (Plasma stability, rat): 59% |
| CC(C)C(=O)N1CCC[C@]12CN([C@H](C(N)=O)[C@@H](C)O)C2=O [Compound Y, (2S,3R)-3-hydroxy-2-((R)-5-isobutyryl-1-oxo-2,5-diazaspiro[3,4]octan-2-yl)butanamide] | 54.85% | WT2D agonist | 1e-10 M | 64.24% | WT2C agonist | 70.74% | WT2B agonist | – | 61.76% | WT2A agonist | 3.63e-12 M | 8.91e-12 M | – |
| C[C@@H](O)[C@@H](C(N)=O)N1C[C@]2(CCCN2C(=O)OC(C)(C)C)C1=O [Compound W, tert-butyl (R)-2-((2S,3R)-1-amino-3-hydroxy-1-oxobutan-2-yl)-1-oxo-2,5-diazaspiro[3,4]octane-5-carboxylate] | 66.72% | WT2D agonist | 7.08e-12 M | 67.5% | WT2C agonist | 53.09% | WT2B agonist | 1.06 nM | 18.33% | WT2A agonist | 1.45e-10 M | 4.47e-12 M | – |
| CC(C)C(=O)N1CCC[C@@]12CN([C@H](C(N)=O)[C@@H](C)O)C2=O [Compound Z, (2S,3R)-3-hydroxy-2-((S)-5-isobutyryl-1-oxo-2,5-diazaspiro[3,4]octan-2-yl)butanamide] | 65.32% | WT2D agonist | 6.03e-12 M | 47.76% | WT2C agonist | 70.49% | WT2B agonist | – | 42.5% | WT2A agonist | 3.16e-12 M | 8.71e-11 M | – |
